Earlier results on one compound are cited in patent publication US20220287355A1, “ORAL PRODUCTS WITH SELF-EMULSIFYING SYSTEM” (NICOVENTURES TRADING LIMITED, priority 2021, published 2022).

Test in series [1]: not given
The source holds these as a separate data set.

`C=C(C)[C@@H]1CCC(C)=C[C@H]1c1c(O)cc(CCCCC)cc1O` [CBD, cannabidiol]: the logP value result is recorded as “about 6.5”. Further, the “solubility in an aqueous environment (e.g., saliva)” value in series [1] is reported as “insoluble”.
